Entries after “also recorded” stand apart in the source; their conditions may differ.
Experiments:
[1] = test system: GBM cell lines T98G, U-87MG and U251; assay: GBM cell viability by Alamar blue assay; assay type: cell-based; conditions: various concentrations, 48 hrs (FIG. 8)
Procedure: Three GBM cell lines (T98G, U87-MG and U251) were plated and treated with MK886 and Montelukast at various concentrations for 48 hrs. Cell viability was measured by Alamar blue assay. Data represent the average of triplicate+SD. *p<0.05
To test the efficacy of leukotriene inhibitors in preventing glioblastoma cell proliferation, three GBM cell lines: T98G, U-87MG and U251 (purchased from an in-house cell culture facility) were utilized. The cell lines were treated with MK886 and Montelukast at different concentrations. After treatment for 48 hrs, cell survival and growth was analyzed by Alamar blue assay (Al-Nasiry, S et al. (2007) Hum. Reprod. 22:1304-9).

[2] = test system: tumor cells isolated from Math1-Cre/Ptch1^C/C animals (MB cells); assay: Tumor cell proliferation in vitro by Ki67 immunostaining; assay type: cell-based, mouse; conditions: 48 hrs treatment, 3 μM, vs DMSO (FIG. 5)
Procedure: 48 hrs later, the percentage of proliferating cells was calculated after immunostaining the culture with antibody against Ki67.
Tumor cells isolated from the mouse model were treated with MK886 or DMSO as a control. At 48 hrs after treatment, tumor cells were analyzed for proliferation by immunostaining for Ki67.
DMSO was used as a negative control.

[3] = test system: tumor cells isolated from Math1-Cre/Ptch1^C/C animals (MB cells); assay: Nestin expression in cultured medulloblastoma tumor cells (immunostaining); assay type: cell-based, mouse
Procedure: (§1) GNPs isolated from Ptch1^C/C animals were plated and infected with lentivirus carrying Cre recombinase to delete Ptch1. At 48 hrs following the infection, GNPs were stained for Cre (green) and Nestin (red) in control (Panel A) and in the presence of 20 ng/ml leukotriene (Panel B). MB cells were plated in vitro for 48 hrs, and stained for Nestin (red) in control (Panel C) and in the presence of 5 μM MK886. (Panel D).
Tumor cells isolated from Math1-Cre/Ptch1^C/C animals, were treated with 3 μM DMSO (Panels A and B) or MK886 (Panels C and D) in vitro. After 48 hrs treatment, tumor cells were harvested for immunostaining with antibodies against Nestin (red) and Ki67 (green) (Panels B and D). The same cultures were counterstained by DAPI (blue) to show the total cell number (Panels A and B).
To further examine whether Leukotriene synthesis is required for Nestin expression in tumor cells, tumor cells were isolated from the mouse model, which has already highly expresses Nestin in vivo, even in the culture at 48 hrs following plating.
It was next investigated whether leukotriene inhibition can prevent tumor cell proliferation. […] At 48 hrs after treatment, tumor cells were analyzed for proliferation by immunostaining for Ki67. […]

[4] = test system: medulloblastoma in Math1-Cre/Ptch1^C/C animals; assay: In vivo tumor growth in tumor bearing Math1-Cre/Ptch1^C/C animals; parameters: species or system mouse
Procedure: Tumor bearing animals were treated with MK886 or DMSO by IP injection. After 1 month treatment, tumors were harvested. Tumor size was reduced by 30% with the treatment of MK886 (Panel A). After the treatment, tumors were sectioned for immunostaining for Nestin (Panels B and D), and Ki67 (Panels C and E). In the control (Panels B and C), tumor cells extensively express Nestin (Panel B) and all the tumor cells were Ki67 positive (Panel C).
Next, the efficacy of MK886 in inhibiting in vivo tumor growth was evaluated. Math1-Cre/Ptch1^C/C animals at postnatal day 21 were treated daily with 30 μg MK886 by intraperitoneal injection. Three weeks later, tumor volume was evaluated by MRI imaging.
Nestin expression and Ki67 was compared in tumor sections by immunohistochemical analysis.

Ptch1-deficient GNPs = assay: Induction of Nestin expression in Ptch1-deficient GNPs (immunocytochemistry); assay type: cell-based, mouse; conditions: 20 ng/ml leukotriene, 48 hrs after Cre lentivirus infection
Procedure: as §1
Since Nestin is a cytoskeleton protein, it was examined whether leukotriene could induce Nestin expression in medulloblastoma cells. For this purpose, cerebellar GNPs were isolated from Ptch1^C/C animals, and Patched1 (Ptch1) was deleted from GNPs by using a lentivirus with Cre recombinase. At 48 hrs following the infection, cells were harvested to analyze Nestin expression by immunocytochemistry. […] The presence of Nestin mRNA and protein has been confirmed by RT-PCR and western blotting (data not shown).

Molecule | viability of GBM cells [1] | proliferation among tumor cells (Ki67) [2] | Nestin expression in tumor cells ([3]; 48 hrs treatment, 3 μM, vs DMSO (FIG. 5)) | Nestin expression among tumor cells ([3]; MB cells plated in vitro 48 hrs, 5 μM MK886 (FIG. 4)) | decrease of tumor size in volume (MRI imaging) ([4]; 30 μg MK886 daily intraperitoneal from postnatal day 21, three weeks, vs DMSO) | tumor size reduction ([4]; IP injection, after 1 month treatment, tumors harvested (FIG. 7 Panel A)) [%] | Nestin expression in tumor sections after treatment ([4]; immunostaining of tumor sections after MK886 treatment vs DMSO) | number of Ki67 positive cells in tumor ([4]; tumor sections after MK886 treatment compared with control) | tumor cells still positive for Ki67 ([4]; tumor sections after MK886 treatment, control all cells Ki67 positive (FIG. 7 Panel E)) | Nestin protein among Ptch1-deficient GNPs (Ptch1-deficient GNPs)
CC(C)c1ccc2c(c1)c(SC(C)(C)C)c(CC(C)(C)C(=O)[O-])n2Cc1ccc(Cl)cc1.[Na+] [MK886, 1-[(4-Chlorophenyl)methyl]-3-[(1,1-dimethylethyl)thio]-α,α-dimethyl-5-(1-methylethyl)-1H-Indole-2-propanoic acid] | effectively reduce the viability | prevented the proliferation | markedly inhibited | dramatically inhibited | over 30% | 30 | dramatically reduced; also recorded: almost no Nestin is present | decreased dramatically | around 30% | –
CC(C)(O)c1ccccc1CC[C@@H](SCC1(CC(=O)O)CC1)c1cccc(/C=C/c2ccc3ccc(Cl)cc3n2)c1 [Montelukast, (R,E)-2-(1-((1-(3-(2-(7-chloroquinolin-2-yl)vinyl)phenyl)-3-(2-(2-hydroxypropan-2-yl)phenyl)propylthio)methyl)cyclopropyl)acetic acid] | effectively reduce the viability | – | – | – | – | – | – | – | – | –
leukotriene | – | – | – | – | – | – | – | – | – | high level of Nestin protein was detected
